According to PubChem BioAssay (NCI):
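These data come from cells grown in 96-well plates and exposed to compound for 48 hours at five concentrations. At the GI50, growth is halved. TGI: total growth inhibition.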

How the values were obtained:
Test in all cases: DTP human tumour cell line panel, 48 h
786-0 renal = test system: 786-0 renal
A498 renal = test system: A498 renal
A549 NSCLC = test system: A549 NSCLC
ACHN renal = test system: ACHN renal
BT-549 breast = test system: BT-549 breast
CAKI-1 renal = test system: CAKI-1 renal
CCRF-CEM leukemia = test system: CCRF-CEM leukemia
COLO 205 colon = test system: COLO 205 colon
DU-145 prostate = test system: DU-145 prostate
EKVX NSCLC = test system: EKVX NSCLC
HCC-2998 colon = test system: HCC-2998 colon
HCT-116 colon = test system: HCT-116 colon
HCT-15 colon = test system: HCT-15 colon
HL-60(TB) leukemia = test system: HL-60(TB) leukemia
HOP-62 NSCLC = test system: HOP-62 NSCLC
HOP-92 NSCLC = test system: HOP-92 NSCLC
HS 578T breast = test system: HS 578T breast
HT29 colon = test system: HT29 colon
IGROV1 ovarian = test system: IGROV1 ovarian
K-562 leukemia = test system: K-562 leukemia
KM12 colon = test system: KM12 colon
LOX IMVI melanoma = test system: LOX IMVI melanoma
M14 melanoma = test system: M14 melanoma
MALME-3M melanoma = test system: MALME-3M melanoma
MCF7 breast = test system: MCF7 breast
MDA-MB-231 breast = test system: MDA-MB-231 breast
MDA-MB-435 = test system: MDA-MB-435
MOLT-4 leukemia = test system: MOLT-4 leukemia
NCI-H226 lung = test system: NCI-H226 lung
NCI-H23 lung = test system: NCI-H23 lung
NCI-H460 lung = test system: NCI-H460 lung
NCI-H522 lung = test system: NCI-H522 lung
NCI/ADR-RES ovarian = test system: NCI/ADR-RES ovarian
OVCAR-3 ovarian = test system: OVCAR-3 ovarian
OVCAR-4 ovarian = test system: OVCAR-4 ovarian
OVCAR-5 ovarian = test system: OVCAR-5 ovarian
OVCAR-8 ovarian = test system: OVCAR-8 ovarian
PC-3 prostate = test system: PC-3 prostate
RPMI-8226 leukemia = test system: RPMI-8226 leukemia
RXF 393 renal = test system: RXF 393 renal
SF-268 CNS = test system: SF-268 CNS
SF-295 CNS = test system: SF-295 CNS
SF-539 CNS = test system: SF-539 CNS
SK-MEL-2 melanoma = test system: SK-MEL-2 melanoma
SK-MEL-28 melanoma = test system: SK-MEL-28 melanoma
SK-MEL-5 melanoma = test system: SK-MEL-5 melanoma
SK-OV-3 ovarian = test system: SK-OV-3 ovarian
SN12C renal = test system: SN12C renal
SNB-19 CNS = test system: SNB-19 CNS
SNB-75 CNS = test system: SNB-75 CNS
SR leukemia = test system: SR leukemia
SW-620 colon = test system: SW-620 colon
T-47D breast = test system: T-47D breast
TK-10 renal = test system: TK-10 renal
U251 CNS = test system: U251 CNS
UACC-257 melanoma = test system: UACC-257 melanoma
UACC-62 melanoma = test system: UACC-62 melanoma
UO-31 renal = test system: UO-31 renal

## CC(=O)/C=C/c1cn(C(=O)OC(C)(C)C)c2ccc(Br)cc12
786-0 renal
  GI50: 11.8 µM
  TGI: 25.3 µM
A498 renal
  GI50: 20.1 µM
  TGI: 39.7 µM
A549 NSCLC
  GI50: 18.8 µM
  TGI: 52.4 µM
ACHN renal
  GI50: 11.6 µM
  TGI: 24.8 µM
BT-549 breast
  GI50: 5.87 µM
  TGI: 26.4 µM
CAKI-1 renal
  GI50: 22.1 µM
  TGI: 42.5 µM
CCRF-CEM leukemia
  GI50: 1.07 µM
  TGI: > 100 µM
COLO 205 colon
  GI50: 19.5 µM
  TGI: 42.1 µM
DU-145 prostate
  GI50: 14.1 µM
  TGI: 45.1 µM
EKVX NSCLC
  GI50: 24.5 µM
  TGI: 84.3 µM
HCC-2998 colon
  GI50: 18 µM
  TGI: 37.4 µM
HCT-116 colon
  GI50: 8.39 µM
  TGI: 21.6 µM
HCT-15 colon
  GI50: 20.9 µM
  TGI: > 100 µM
HL-60(TB) leukemia
  GI50: 29.6 µM
  TGI: > 100 µM
HOP-62 NSCLC
  GI50: 15.8 µM
  TGI: 30.4 µM
HOP-92 NSCLC
  GI50: 13.4 µM
  TGI: 35.8 µM
HS 578T breast
  GI50: 26.8 µM
  TGI: 65.4 µM
HT29 colon
  GI50: 10.6 µM
  TGI: 24.8 µM
IGROV1 ovarian
  GI50: 15.9 µM
  TGI: 39.5 µM
K-562 leukemia
  GI50: 18 µM
  TGI: > 54 µM
KM12 colon
  GI50: 13.8 µM
  TGI: 29.1 µM
LOX IMVI melanoma
  GI50: 10.7 µM
  TGI: 25.2 µM
M14 melanoma
  GI50: 30.1 µM
  TGI: > 100 µM
MALME-3M melanoma
  GI50: 52.1 µM
  TGI: > 89.2 µM
MCF7 breast
  GI50: 9.71 µM
  TGI: 46.5 µM
MDA-MB-231 breast
  GI50: 18.9 µM
  TGI: 43.8 µM
MDA-MB-435
  GI50: 9.97 µM
  TGI: 25.9 µM
MOLT-4 leukemia
  GI50: 41.6 µM
  TGI: > 100 µM
NCI-H226 lung
  GI50: 11.7 µM
  TGI: 28.7 µM
NCI-H23 lung
  GI50: 19.8 µM
  TGI: 42 µM
NCI-H460 lung
  GI50: 17 µM
  TGI: 36.4 µM
NCI-H522 lung
  GI50: 17.7 µM
  TGI: 63.3 µM
NCI/ADR-RES ovarian
  GI50: 17.9 µM
  TGI: 45.4 µM
OVCAR-3 ovarian
  GI50: 13 µM
  TGI: 28.3 µM
OVCAR-4 ovarian
  GI50: 25.7 µM
  TGI: > 100 µM
OVCAR-5 ovarian
  GI50: 25.6 µM
  TGI: 53.9 µM
OVCAR-8 ovarian
  GI50: 16.2 µM
  TGI: 39 µM
PC-3 prostate
  GI50: 18.2 µM
  TGI: > 79.2 µM
RPMI-8226 leukemia
  GI50: 9.41 µM
  TGI: > 66.5 µM
RXF 393 renal
  GI50: 15.6 µM
  TGI: 37 µM
SF-268 CNS
  GI50: 24.1 µM
  TGI: 97.9 µM
SF-295 CNS
  GI50: 14.1 µM
  TGI: 28.8 µM
SF-539 CNS
  GI50: 12.8 µM
  TGI: 26 µM
SK-MEL-2 melanoma
  GI50: 20.9 µM
  TGI: 54.6 µM
SK-MEL-28 melanoma
  GI50: 25.9 µM
  TGI: > 68.1 µM
SK-MEL-5 melanoma
  GI50: 13.6 µM
  TGI: 32.9 µM
SK-OV-3 ovarian
  GI50: 20.6 µM
  TGI: 46.7 µM
SN12C renal
  GI50: 13.8 µM
  TGI: 36.4 µM
SNB-19 CNS
  GI50: 15.4 µM
  TGI: 30.1 µM
SNB-75 CNS
  GI50: 14.4 µM
  TGI: 39.3 µM
SR leukemia
  GI50: 71.6 µM
  TGI: > 100 µM
SW-620 colon
  GI50: 19.1 µM
  TGI: 39 µM
T-47D breast
  GI50: 17.4 µM
  TGI: 54.4 µM
TK-10 renal
  GI50: 17.6 µM
  TGI: 33.9 µM
U251 CNS
  GI50: 12.5 µM
  TGI: 25.5 µM
UACC-257 melanoma
  GI50: > 70.3 µM
  TGI: > 100 µM
UACC-62 melanoma
  GI50: 20.6 µM
  TGI: > 85.7 µM
UO-31 renal
  GI50: 10.3 µM
  TGI: 51.9 µM
